Values joined by “and” are separate entries in the source; they are usually repeats but may differ in a detail not shown here. Equal values may be shown once. Toxic doses and inconclusive results are not listed. How the source made its calls: active means survival T/C of 150% or more; inactive means T/C below 125% in these data.
Test system: P388 leukemia ip, CD2F1 mice, survival T/C
Assay: NCI In Vivo Anticancer Drug Screen. Data for tumor model P388 Leukemia (intraperitoneal) in CD2F1 (CDF1) mice
Conditions: endpoint: median survival time, higher = longer survival
Procedure, shortened: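 Mice carrying the transplanted tumor received test compound or vehicle. Survival was recorded in each group, and the value is the treated-group measurement divided by that of the vehicle-treated control group.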

[1] = dose: 60.0 mg/kg/injection, schedule: Q01DX005 (ip), vehicle: saline with Tween-80
[2] = dose: 120.0 mg/kg/injection, schedule: Q01DX005 (ip), vehicle: saline with Tween-80
[3] = dose: 240.0 mg/kg/injection, schedule: Q01DX005 (ip), vehicle: saline with Tween-80
[4] = dose: 100.0 mg/kg/injection, schedule: Q04DX002 (ip), vehicle: saline with Tween-80
[5] = dose: 200.0 mg/kg/injection, schedule: Q04DX002 (ip), vehicle: saline with Tween-80
[6] = dose: 400.0 mg/kg/injection, schedule: Q04DX002 (ip), vehicle: saline with Tween-80
[7] = dose: 25.0 mg/kg/injection, schedule: Q01DX005 (ip), vehicle: saline with Tween-80
[8] = dose: 50.0 mg/kg/injection, schedule: Q01DX005 (ip), vehicle: saline with Tween-80
[9] = dose: 100.0 mg/kg/injection, schedule: Q01DX005 (ip), vehicle: saline with Tween-80
[10] = dose: 50.0 mg/kg/injection, schedule: Q01DX009 (ip), vehicle: saline
[11] = dose: 100.0 mg/kg/injection, schedule: Q01DX009 (ip), vehicle: saline
[12] = dose: 200.0 mg/kg/injection, schedule: Q01DX009 (ip), vehicle: saline
[13] = dose: 50.0 mg/kg/injection, schedule: Q01DX005 (ip), vehicle: Klucel (hydroxypropylcellulose) (HPC)
[14] = dose: 100.0 mg/kg/injection, schedule: Q01DX005 (ip), vehicle: Klucel (hydroxypropylcellulose) (HPC)
[15] = dose: 200.0 mg/kg/injection, schedule: Q01DX005 (ip), vehicle: Klucel (hydroxypropylcellulose) (HPC)
[16] = dose: 200.0 mg/kg/injection, schedule: Q01DX005 (ip), vehicle: saline with Tween-80
[17] = dose: 12.5 mg/kg/injection, schedule: Q01DX009 (ip), vehicle: saline with Tween-80
[18] = dose: 25.0 mg/kg/injection, schedule: Q01DX009 (ip), vehicle: saline with Tween-80
[19] = dose: 50.0 mg/kg/injection, schedule: Q01DX009 (ip), vehicle: saline with Tween-80

Measured: T/C

CC1(C)CC(=N/O)/C(=N/O)C(=N\NC(N)=S)/C1
inactive: [1] 97 % of control | [2] 94 % of control | [3] 97 % of control

Cc1c(O)cnc2nn(-c3ccccc3)c(=N)n12
inactive: [1] 91 % of control | [2] 92 % of control | [3] 90 % of control

COc1ccc(N=C(C2=C(O)c3ccccc3C2=O)c2ccccc2)cc1
inactive: [4] 101 % of control | [5] 101 % of control | [6] 97 % of control

NC(N)=N/N=C/c1nccc2ccccc12
inactive: [7] 99 % of control and 103 % of control | [8] 98 % of control and 99 % of control and 102 % of control | [9] 105 % of control and 120 % of control

[CH3][Ge]([CH3])([CH3])/[C](=[C](\c1ccccc1)[Ge]([CH3])([CH3])[CH3])c1ccccc1
inactive: [10] 106 % of control | [11] 92 % of control | [12] 93 % of control

O=C1NC(=O)C(=Cc2ccc([N+](=O)[O-])cc2)C(=O)N1
inactive: [13] 107 % of control | [14] 99 % of control | [15] 104 % of control

CN(/N=C/c1ccccc1O)C(=O)Nc1cc(C(F)(F)F)ccc1Cl
inactive: [7] 100 % of control | [8] 100 % of control and 102 % of control | [9] 94 % of control and 96 % of control | [16] 91 % of control and 94 % of control

O=C(Nc1ccc(O)c2c1C(=O)c1ccccc1C2=O)Oc1ccccc1
inactive: [13] 101 % of control | [14] 102 % of control | [15] 99 % of control

CN(C)c1nc(N(C)C)nc(N(C)C)n1
inactive: dose: 6.25 mg/kg/injection, schedule: Q01DX009 (ip), vehicle: saline with Tween-80 110 % of control | [17] 105 % of control and 108 % of control and 96 % of control | dose: 20.0 mg/kg/injection, schedule: Q01DX009 (ip), vehicle: saline with Tween-80 108 % of control | dose: 25.0 mg/kg/injection, schedule: Q01DX001 (ip), vehicle: Klucel (hydroxypropylcellulose) (HPC) 103 % of control and 104 % of control | [18] 98 % of control and 103 % of control and 107 % of control | dose: 25.0 mg/kg/injection, schedule: Q04DX002 (ip), vehicle: Klucel (hydroxypropylcellulose) (HPC) 100 % of control and 112 % of control | dose: 25.0 mg/kg/injection, schedule: Q04DX003 (ip), vehicle: Klucel (hydroxypropylcellulose) (HPC) 110 % of control and 115 % of control | dose: 40.0 mg/kg/injection, schedule: Q01DX009 (ip), vehicle: saline with Tween-80 109 % of control | [19] 104 % of control and 109 % of control (2×) | dose: 75.0 mg/kg/injection, schedule: Q01DX005 (ip), vehicle: Klucel (hydroxypropylcellulose) (HPC) 105 % of control | dose: 80.0 mg/kg/injection, schedule: Q01DX009 (ip), vehicle: saline with Tween-80 111 % of control | dose: 100.0 mg/kg/injection, schedule: Q01DX009 (ip), vehicle: saline with Tween-80 114 % of control and 119 % of control and 97 % of control | dose: 150.0 mg/kg/injection, schedule: Q01DX005 (ip), vehicle: Klucel (hydroxypropylcellulose) (HPC) 105 % of control | dose: 160.0 mg/kg/injection, schedule: Q01DX009 (ip), vehicle: saline with Tween-80 118 % of control | dose: 200.0 mg/kg/injection, schedule: Q01DX009 (ip), vehicle: saline with Tween-80 108 % of control

CC(NC(=O)OC(C)(C)C)C(=O)NC(C)C(=O)NC(C)C(=O)Nc1ccc([N+](=O)[O-])cc1 (stereo unspecified)
inactive: [8] 94 % of control | [9] 92 % of control | [16] 87 % of control

Cc1ccc(C2(O)c3ccccc3N=NN2C)cc1 (stereo unspecified)
inactive: [8] 100 % of control | [9] 100 % of control | [16] 96 % of control

Cn1c2c(c3cc(Cl)cc(Cl)c31)-c1ncncc1CC2
inactive: [4] 98 % of control | [5] 98 % of control | [6] 95 % of control

C/C(=N\NC(=S)Nc1ccc([N+](=O)[O-])cc1S(=O)(=O)O)c1ccccn1
inactive: [8] 103 % of control | [9] 106 % of control | [16] 103 % of control

CCCCC(CC)C(=O)OC(C)C(N)=O (stereo unspecified)
inactive: dose: 50.0 mg/kg/injection, schedule: Q01DX005 (ip), vehicle: saline 105 % of control | dose: 100.0 mg/kg/injection, schedule: Q01DX005 (ip), vehicle: saline 101 % of control | dose: 200.0 mg/kg/injection, schedule: Q01DX005 (ip), vehicle: saline 101 % of control

ClC(Cl)(Cl)c1cccc(C(Cl)(Cl)Cl)c1
inactive: dose: 132.0 mg/kg/injection, schedule: Q04DX003 (ip), vehicle: Klucel (hydroxypropylcellulose) (HPC) 113 % of control | dose: 200.0 mg/kg/injection, schedule: Q04DX003 (ip), vehicle: Klucel (hydroxypropylcellulose) (HPC) 100 % of control | dose: 264.0 mg/kg/injection, schedule: Q04DX003 (ip), vehicle: saline with Tween-80 95 % of control | dose: 300.0 mg/kg/injection, schedule: Q04DX003 (ip), vehicle: Klucel (hydroxypropylcellulose) (HPC) 113 % of control | dose: 400.0 mg/kg/injection, schedule: Q04DX003 (ip), vehicle: saline with Tween-80 91 % of control | dose: 600.0 mg/kg/injection, schedule: Q04DX003 (ip), vehicle: saline with Tween-80 108 % of control

CCCCC(CCC)(CCN)CCCC
inactive: dose: 3.0 mg/kg/injection, schedule: Q01DX009 (ip), vehicle: saline 95 % of control | dose: 6.0 mg/kg/injection, schedule: Q01DX009 (ip), vehicle: saline 100 % of control | dose: 12.0 mg/kg/injection, schedule: Q01DX009 (ip), vehicle: saline 104 % of control

O=C1CC(=O)NP(=O)(Oc2ccccc2)N1
inactive: dose: 100.0 mg/kg/injection, schedule: Q04DX002 (ip), vehicle: saline 103 % of control | dose: 200.0 mg/kg/injection, schedule: Q04DX002 (ip), vehicle: saline 100 % of control

O=C(O)c1ccccc1NCc1ccco1
inactive: [8] 91 % of control | [9] 96 % of control | [16] 89 % of control

CCc1ccc(NC2=NCCO2)cc1
inactive: [17] 100 % of control | [18] 105 % of control | [19] 100 % of control

O=C(Nc1ccc(Cl)cc1)Nc1nnc2nc(C3(c4nc5nnc(NC(=O)Nc6ccc(Cl)cc6)n5[nH]c4=O)CCCC3=O)c(=O)[nH]n12
inactive: dose: 30.0 mg/kg/injection, schedule: Q01DX005 (ip), vehicle: saline with Tween-80 95 % of control | [1] 91 % of control and 95 % of control | [3] 86 % of control

O=[N+]([O-])/C=C\c1cc2c3c(c1)CCCN3CCC2
inactive: [17] 100 % of control | [18] 109 % of control | [19] 109 % of control

CC(=O)ON(C(=O)c1ccccc1)c1ccccc1
inactive: [1] 104 % of control | [2] 102 % of control | [3] 99 % of control

O=c1ccocc1CN1CCCCC1
inactive: [10] 100 % of control | [11] 99 % of control | [12] 99 % of control

COc1ccc(C[n+]2ccccc2C#N)cc1OC
inactive: [13] 103 % of control | [14] 107 % of control

O=C1OC(OC/C(Br)=C(/Br)COC2OC(=O)C(Cl)=C2Cl)C(Cl)=C1Cl (stereo unspecified)
inactive: [1] 106 % of control | [2] 108 % of control

CCOc1c(N=Nc2ccc(Cl)cc2)c(C)nn1C(N)=S
inactive: dose: 60.0 mg/kg/injection, schedule: Q01DX005 (ip), vehicle: Klucel (hydroxypropylcellulose) (HPC) 112 % of control | dose: 120.0 mg/kg/injection, schedule: Q01DX005 (ip), vehicle: Klucel (hydroxypropylcellulose) (HPC) 112 % of control | dose: 240.0 mg/kg/injection, schedule: Q01DX005 (ip), vehicle: Klucel (hydroxypropylcellulose) (HPC) 112 % of control

Source: PubChem BioAssay AID330 (DTP/NCI, 2004)
